Measured values published in patent publication US20260193226A1, “MICROBIOCIDAL TETRAHYDROISOQUINOLINE DERIVATIVES” (SYNGENTA CROP PROTECTION AG, priority 2022, published 2026).

How the values were obtained:
[1] = test system: Mycosphaerella graminicola (Septoria tritici); assay: Mycosphaerella graminicola (Septoria tritici) / liquid culture (Septoria blotch); assay type: cell-based; details: Zymoseptoria tritici, compared to untreated control
Method: (§1) Example B15: Mycosphaerella graminicola (Septoria tritici)/Liquid Culture (Septoria Blotch) Conidia of the fungus from cryogenic storage are directly mixed into nutrient broth (PDB potato dextrose broth). After placing a (DMSO) solution of test compound into a microtiter plate (96-well format), the nutrient broth containing the fungal spores is added. The test plates are incubated at 24° C. and the inhibition of growth is determined photometrically 4 to 5 days after application.

[2] = test system: Mycosphaerella arachidis (Cercospora arachidicola); assay: Mycosphaerella arachidis (Cercospora arachidicola) / liquid culture (early leaf spot); assay type: cell-based; details: compared to untreated control
Method: as §1, with “B9:” for “B15:”, “arachidis (Cercospora arachidicola)/Liquid” for “graminicola (Septoria tritici)/Liquid”, “(Early Leaf Spot)” for “(Septoria Blotch)”

SMILES	inhibition of growth at 20 ppm [1]	inhibition of growth at 20 ppm [2]
CCCCCC(=O)N1Cc2ccccc2C(c2cnn(C)c2C)C1 (stereo not drawn) [Compound P-5, 1-[4-(1,5-dimethylpyrazol-4-yl)-3,4-dihydro-1H-isoquinolin-2-yl]hexan-1-one]	≥ 80%	–
Cc1c(C2CN(C(=O)Nc3ccc(C4CC4)cc3)Cc3ccccc32)cnn1C (stereo not drawn) [Compound P-41, N-(4-cyclopropylphenyl)-4-(1,5-dimethylpyrazol-4-yl)-3,4-dihydro-1H-isoquinoline-2-carboxamide]	≥ 80%	–
Cc1c(C2CN(C(=O)COCc3ccc(F)cc3F)Cc3ccccc32)cnn1C (stereo not drawn) [Compound P-15, 2-[(2,4-difluorophenyl)methoxy]-1-[4-(1,5-dimethylpyrazol-4-yl)-3,4-dihydro-1H-isoquinolin-2-yl]ethanone]	≥ 80%	–
Cc1c(C2CN(C(=O)CCCCC3CC3)Cc3ccccc32)cnn1C (stereo not drawn) [Compound P-48, 5-cyclopropyl-1-[4-(1,5-dimethylpyrazol-4-yl)-3,4-dihydro-1H-isoquinolin-2-yl]pentan-1-one]	≥ 80%	–
Cc1c(C2CN(C(=O)CSc3ccc(F)cc3F)Cc3ccccc32)cnn1C (stereo not drawn) [Compound P-14, 2-(2,4-difluorophenyl)sulfanyl-1-[4-(1,5-dimethylpyrazol-4-yl)-3,4-dihydro-1H-isoquinolin-2-yl]ethanone]	≥ 80%	≥ 80%
Cc1c(C2CN(C(=O)OCCc3ccc(F)cc3)Cc3ccccc32)cnn1C (stereo not drawn) [Compound P-25, 2-(4-fluorophenyl)ethyl 4-(1,5-dimethylpyrazol-4-yl)-3,4-dihydro-1H-isoquinoline-2-carboxylate]	≥ 80%	–
Cc1c(C2CN(C(=O)Nc3cc(C(C)(C)C)on3)Cc3ccccc32)cnn1C (stereo not drawn) [Compound P-34, N-(5-tert-butylisoxazol-3-yl)-4-(1,5-dimethylpyrazol-4-yl)-3,4-dihydro-1H-isoquinoline-2-carboxamide]	≥ 80%	–
Cc1c(C2CN(C(=O)NCCC(C)(C)C3CC3)Cc3ccccc32)cnn1C (stereo not drawn) [Compound P-39, N-(3-cyclopropyl-3-methyl-butyl)-4-(1,5-dimethylpyrazol-4-yl)-3,4-dihydro-1H-isoquinoline-2-carboxamide]	≥ 80%	–
Cc1c([C@H]2CN(C(=O)NCCCC3CC3)[C@@H](C)c3ccccc32)cnn1C [Compound P-51, (1S,4S)-N-(3-cyclopropylpropyl)-4-(1,5-dimethylpyrazol-4-yl)-1-methyl-3,4-dihydro-1H-isoquinoline-2-carboxamide]	≥ 80%	≥ 80%
Cc1c(C2CN(C(=O)Nc3nc4ccccc4s3)Cc3ccccc32)cnn1C (stereo not drawn) [Compound P-33, N-(1,3-benzothiazol-2-yl)-4-(1,5-dimethylpyrazol-4-yl)-3,4-dihydro-1H-isoquinoline-2-carboxamide]	≥ 80%	–
CCCCCCC(=O)N1Cc2ccccc2C(C)(c2cnn(C)c2)C1 (stereo not drawn) [Compound P-8, 1-[4-methyl-4-(1-methylpyrazol-4-yl)-1,3-dihydroisoquinolin-2-yl]heptan-1-one]	≥ 80%	–
Cc1c(C2CN(C(=O)OCCC3CC3)Cc3ccccc32)cnn1C (stereo not drawn) [Compound P-3, 2-cyclopropylethyl 4-(1,5-dimethylpyrazol-4-yl)-3,4-dihydro-1H-isoquinoline-2-carboxylate]	≥ 80%	–
Cc1c(C2CN(C(=O)OCCCCC(F)F)Cc3ccccc32)cnn1C (stereo not drawn) [Compound P-54, 5,5-difluoropentyl 4-(1,5-dimethylpyrazol-4-yl)-3,4-dihydro-1H-isoquinoline-2-carboxylate]	≥ 80%	≥ 80%
Cc1c([C@H]2CN(C(=O)NCCCCCF)[C@@H](C)c3ccccc32)cnn1C [Compound P-52, (1S,4S)-4-(1,5-dimethylpyrazol-4-yl)-N-(5-fluoropentyl)-1-methyl-3,4-dihydro-1H-isoquinoline-2-carboxamide]	≥ 80%	–
Cc1c(C2CN(C(=O)CCCC=C(F)F)Cc3ccccc32)cnn1C (stereo not drawn) [Compound P-24, 1-[4-(1,5-dimethylpyrazol-4-yl)-3,4-dihydro-1H-isoquinolin-2-yl]-6,6-difluoro-hex-5-en-1-one]	≥ 80%	–
C#CCCCCCC(=O)N1Cc2ccccc2C(c2cnn(C)c2C)C1 (stereo not drawn) [Compound P-21, 1-[4-(1,5-dimethylpyrazol-4-yl)-3,4-dihydro-1H-isoquinolin-2-yl]oct-7-yn-1-one]	≥ 80%	–

SMILES	inhibition of growth at 20 ppm [1]	inhibition of growth at 20 ppm [2]
Cc1c([C@H]2CN(C(=O)NCCCCC(F)F)[C@@H](C)c3ccccc32)cnn1C [Compound P-53, (1S,4S)-N-(5,5-difluoropentyl)-4-(1,5-dimethylpyrazol-4-yl)-1-methyl-3,4-dihydro-1H-isoquinoline-2-carboxamide]	≥ 80%	–
Cc1c(C2CN(C(=O)NCCC3CCCCCC3)Cc3ccccc32)cnn1C (stereo not drawn) [Compound P-32, N-(2-cycloheptylethyl)-4-(1,5-dimethylpyrazol-4-yl)-3,4-dihydro-1H-isoquinoline-2-carboxamide]	≥ 80%	–
Cc1c(C2CN(C(=O)CCCC(C)C)Cc3ccccc32)cnn1C (stereo not drawn) [Compound P-19, 1-[4-(1,5-dimethylpyrazol-4-yl)-3,4-dihydro-1H-isoquinolin-2-yl]-5-methyl-hexan-1-one]	≥ 80%	≥ 80%
Cc1c(C2CN(C(=O)NCCCC3CCCC3)Cc3ccccc32)cnn1C (stereo not drawn) [Compound P-38, N-(3-cyclopentylpropyl)-4-(1,5-dimethylpyrazol-4-yl)-3,4-dihydro-1H-isoquinoline-2-carboxamide]	≥ 80%	–
Cc1c([C@H]2CN(C(=O)CCCC=C(F)F)[C@@H](C)c3ccccc32)cnn1C (racemic) [Compound P-26, 6,6-difluoro-1-[rac-(1S,4S)-4-(1,5-dimethylpyrazol-4-yl)-1-methyl-3,4-dihydro-1H-isoquinolin-2-yl]hex-5-en-1-one]	≥ 80%	≥ 80%
Cc1c(C2CN(C(=O)OCCCCCF)Cc3ccccc32)cnn1C (stereo not drawn) [Compound P-55, 5-fluoropentyl 4-(1,5-dimethylpyrazol-4-yl)-3,4-dihydro-1H-isoquinoline-2-carboxylate]	≥ 80%	≥ 80%
Cc1c(C2CN(C(=O)CCc3ccc(Cl)c(Cl)c3)Cc3ccccc32)cnn1C (stereo not drawn) [Compound P-23, 3-(3,4-dichlorophenyl)-1-[4-(1,5-dimethylpyrazol-4-yl)-3,4-dihydro-1H-isoquinolin-2-yl]propan-1-one]	≥ 80%	–
Cc1c([C@H]2CN(C(=O)NCc3ccc(F)cc3F)[C@@H](C)c3ccccc32)cnn1C (racemic) [Compound P-44, rac-(1S,4S)-N-[(2,4-difluorophenyl)methyl]-4-(1,5-dimethylpyrazol-4-yl)-1-methyl-3,4-dihydro-1H-isoquinoline-2-carboxamide]	≥ 80%	–
Cc1c(C2CN(C(=O)CCc3ccc(Br)cc3)Cc3ccccc32)cnn1C (stereo not drawn) [Compound P-20, 3-(4-bromophenyl)-1-[4-(1,5-dimethylpyrazol-4-yl)-3,4-dihydro-1H-isoquinolin-2-yl]propan-1-one]	≥ 80%	–
Cn1cc(C2(C)CN(C(=O)OCCC3CCCCC3)Cc3ccccc32)cn1 (stereo not drawn) [Compound P-12, 2-cyclohexylethyl 4-methyl-4-(1-methylpyrazol-4-yl)-1,3-dihydroisoquinoline-2-carboxylate]	≥ 80%	–
Cc1c(C2CN(C(=O)Nc3ccc(Cl)cc3)Cc3ccccc32)cnn1C (stereo not drawn) [Compound P-40, N-(4-chlorophenyl)-4-(1,5-dimethylpyrazol-4-yl)-3,4-dihydro-1H-isoquinoline-2-carboxamide]	≥ 80%	–
Cc1c(C2CN(C(=O)COc3ccc(F)cc3F)Cc3ccccc32)cnn1C (stereo not drawn) [Compound P-13, 2-(2,4-difluorophenoxy)-1-[4-(1,5-dimethylpyrazol-4-yl)-3,4-dihydro-1H-isoquinolin-2-yl]ethanone]	≥ 80%	–
Cc1c(C2CN(C(=O)CCCCC3CCSS3)Cc3ccccc32)cnn1C (stereo not drawn) [Compound P-18, 1-[4-(1,5-dimethylpyrazol-4-yl)-3,4-dihydro-1H-isoquinolin-2-yl]-5-(dithiolan-3-yl)pentan-1-one]	≥ 80%	–
CCCCCCCCCC(=O)N1Cc2ccccc2C(c2cnn(C)c2C)C1 (stereo not drawn) [Compound P-9, 1-[4-(1,5-dimethylpyrazol-4-yl)-3,4-dihydro-1H-isoquinolin-2-yl]decan-1-one]	≥ 80%	–
Cn1cc(C2CN(C(=O)CCc3ccc(F)cc3F)Cc3ccccc32)cn1 (stereo not drawn) [Compound P-1, 3-(2,4-difluorophenyl)-1-[4-(1-methylpyrazol-4-yl)-3,4-dihydro-1H-isoquinolin-2-yl]propan-1-one]	≥ 80%	≥ 80%
Cc1nc(NC(=O)N2Cc3ccccc3C(c3cnn(C)c3C)C2)ccc1Cl (stereo not drawn) [Compound P-35, N-(5-chloro-6-methyl-2-pyridyl)-4-(1,5-dimethylpyrazol-4-yl)-3,4-dihydro-1H-isoquinoline-2-carboxamide]	≥ 80%	–
